Results as given in patent publication US9752236B2, “Corrosion inhibitors” (Rhodia Operations, priority 2010, dated 2017).

What was measured:
[1] = Static acid immersion test in 5% w/w H2SO4; settings: 5% w/w H2SO4, 50° C., 24 hours, 2000 ppm w/w active inhibitor
Method: (§1) Static acid immersion tests were used to compare the corrosion inhibition performance of various sulfosuccinates in 5% w/w HCl to the industry standard propargyl alcohol (2-propyn-1-ol) and the corrosion inhibitor Stannine® ETH, which is a blend of amine salts and aliphatic alcohols and is available from Rhodia Novecare.
(§2) • A control solution of 5% w/w HCl was prepared by diluting 37% w/w HCl with deionised water. • An inhibited solution of 5% w/w HCl & 2000 ppm w/w active corrosion inhibitor was then prepared for each of the corrosion inhibitors being evaluated. Stannine® ETH was used at 2000 ppm w/w solids as the active content of Stannine® ETH is unknown. • Each solution was then split evenly between 2 Schott bottles (for duplicate runs) and a pre-weighed C1018 mild steel coupon was placed in each so that it was completely submerged. • The Schott bottles were then sealed tightly and stored for 24 hours in an oven set at 50° C. • After the allotted time the coupons were removed from the oven and cleaned using deionised water, HCl cleaning solution and acetone. The HCl cleaning solution had been made by dissolving 5 g SnCl2 and 2 g SbCl3 in 100 ml of 37% w/w HCl. • The coupons were then oven dried before re-weighing with the average weight change of the duplicate coupons being used to calculate the corrosion rate. The above process was then repeated using (a) 5% w/w H2SO4 and (b) 5% w/w acetic acid instead of HCl.

[2] = Static acid immersion test in 5% w/w acetic acid; settings: 50° C., 24 hours, 2000 ppm w/w active inhibitor
Method: as §1, §2

[3] = Linear Polarisation Resistance (LPR) bubble test, corrosion inhibition under oilfield conditions; settings: 20 ppm actives; 5% NaCl brine/Isopar M 9:1; 60° C.; constant CO2; 15 hours
Method: [formula] where baseline corrosion was calculated by taking the average corrosion rate of each cell before the corrosion inhibitors were introduced.
The same tests as described in Example 1 were carried out on the products set out in Table 3 below.

[4] = Static acid immersion test in 5% w/w HCl; settings: 50° C., 24 hours, 2000 ppm w/w active inhibitor
Method: as §1, §2

Row | Compound | % Efficiency [1] | Corrosion rate [1] | % Efficiency [2] | Corrosion rate [2] | corrosion rate (LPR), in words [3] | % Efficiency [4] | Corrosion rate [4] | % Efficiency ([1]; listed as propargyl alcohol)
1 | CCCCCCCC/C=C\CCCCCCCC(=O)NCCOC(=O)C(CC(=O)[O-])S(=O)(=O)[O-].[Na+].[Na+] (stereo not shown) [Disodium oleamido MEA sulfosuccinate] | 65.2% | 669.3 mils/y | 56.7% | 60.7 mils/y | significantly reduce corrosion rates, although they do not perform quite as well as the industry standard | 88.0% | 171.5 mils/y | –
2 | C#CCO [Propargyl alcohol, 2-propyn-1-ol, reference compound] | 18.0% | 1575.2 mils/y | – | – | – | – | 9.5 mils/y | not performing well as an inhibitor in this environment
3 | Disodium cocamido MIPA sulfosuccinate | – | – | – | – | significantly reduce the corrosion rate and have a performance very similar to the industry standard | – | – | –
4 | Disodium laureth sulfosuccinate | – | – | – | – | significantly reduce the corrosion rate and have a performance very similar to the industry standard | – | – | –
5 | Disodium oleamido MIPA sulfosuccinate | 68.4% | 607.0 mils/y | 70.9% | 40.9 mils/y | significantly reduce the corrosion rate and have a performance very similar to the industry standard | 88.5% | 163.3 mils/y | –
6 | Disodium oleth 9 sulfosuccinate | – | – | – | – | significantly reduce corrosion rates, although they do not perform quite as well as the industry standard | – | – | –
7 | Disodium ricinoleamido MEA sulfosuccinate | 81.1% | 362.5 mils/y | 77.2% | 32.0 mils/y | significantly reduce the corrosion rate and have a performance very similar to the industry standard | 84.4% | 221.4 mils/y | –
